# Data published in the supplement of paper PMC10307832.
# How the values were obtained:
# Test in all cases: relative viability (nuclei count vs DMSO), 5 days (fraction); higher = more cells survive
# [1] = system: ABC-1
# Summary of the method: (§1)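 Each reported value is a median over duplicate plates. It expresses relative viability: treated-well nuclei count divided by vehicle-well nuclei count. Lung cancer cell lines in 1536-well plates were dosed by pin tool a day after seeding, alone with one drug or with a fixed anchor-drug dose plus five library-drug doses (not always all listed) in √10 steps, and nuclei were counted after 5 days.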
# [2] = system: EKVX
# Summary of the method: as §1
# [3] = system: HCC-44
# Summary of the method: as §1
# [4] = system: NCI-H1623
# Summary of the method: as §1
# [5] = system: NCI-H1648
# Summary of the method: as §1
# [6] = system: NCI-H1993
# Summary of the method: as §1
# [7] = system: NCI-H2085
# Summary of the method: as §1
# [8] = system: NCI-H2126
# Summary of the method: as §1
# [9] = system: RERF-LC-KJ
# Summary of the method: as §1
smiles,measurement,setting,value
CCN(CC)CCCCNc1ncc2cc(-c3cc(OC)cc(OC)c3)c(NC(=O)NC(C)(C)C)nc2n1 + Cc1cc(Nc2cc(N3CCN(C)CC3)nc(Sc3ccc(NC(=O)C4CC4)cc3)n2)n[nH]1 [Tozasertib] (partner 0.1 µM),relative viability,[1]; first compound 0.01 µM,0.211
same,relative viability,[1]; first compound 0.03162 µM,0.21
same,relative viability,[1]; first compound 0.1 µM,0.207
same,relative viability,[1]; first compound 0.3162 µM,0.148
same,relative viability,[1]; first compound 1 µM,0.187
same,relative viability,[2]; first compound 0.01 µM,0.475
same,relative viability,[2]; first compound 0.03162 µM,0.383
same,relative viability,[2]; first compound 0.1 µM,0.407
same,relative viability,[2]; first compound 0.3162 µM,0.558
same,relative viability,[2]; first compound 1 µM,0.366
same,relative viability,[3]; first compound 0.01 µM,1.1
same,relative viability,[3]; first compound 0.03162 µM,1.07
same,relative viability,[3]; first compound 0.1 µM,0.953
same,relative viability,[3]; first compound 0.3162 µM,0.899
same,relative viability,[3]; first compound 1 µM,0.85
same,relative viability,[4]; first compound 0.01 µM,0.67
same,relative viability,[4]; first compound 0.03162 µM,0.454
same,relative viability,[4]; first compound 0.1 µM,0.43
same,relative viability,[4]; first compound 0.3162 µM,0.513
same,relative viability,[4]; first compound 1 µM,0.416
same,relative viability,[5]; first compound 0.01 µM,0.657
same,relative viability,[5]; first compound 0.03162 µM,0.559
same,relative viability,[5]; first compound 0.1 µM,0.406
same,relative viability,[5]; first compound 0.3162 µM,0.4
same,relative viability,[5]; first compound 1 µM,0.407
same,relative viability,[6]; first compound 0.01 µM,0.621
same,relative viability,[6]; first compound 0.03162 µM,0.608
same,relative viability,[6]; first compound 0.1 µM,0.604
same,relative viability,[6]; first compound 0.3162 µM,0.64
same,relative viability,[6]; first compound 1 µM,0.566
same,relative viability,[7]; first compound 0.01 µM,0.819
same,relative viability,[7]; first compound 0.03162 µM,0.762
same,relative viability,[7]; first compound 0.1 µM,0.823
same,relative viability,[7]; first compound 0.3162 µM,0.729
same,relative viability,[7]; first compound 1 µM,0.639
same,relative viability,[8]; first compound 0.01 µM,0.861
same,relative viability,[8]; first compound 0.03162 µM,0.859
same,relative viability,[8]; first compound 0.1 µM,1.1
same,relative viability,[8]; first compound 0.3162 µM,0.864
same,relative viability,[8]; first compound 1 µM,0.798
same,relative viability,[9]; first compound 0.01 µM,0.547
same,relative viability,[9]; first compound 0.03162 µM,0.617
same,relative viability,[9]; first compound 0.1 µM,0.51
same,relative viability,[9]; first compound 0.3162 µM,0.567
same,relative viability,[9]; first compound 1 µM,0.489
O=c1cc(-c2cccc3c2Sc2ccccc2S3)oc(N2CCOCC2)c1 + Cc1cc(Nc2cc(N3CCN(C)CC3)nc(Sc3ccc(NC(=O)C4CC4)cc3)n2)n[nH]1 [Tozasertib] (partner 0.1 µM),relative viability,[1]; first compound 0.08 µM,0.184
same,relative viability,[1]; first compound 0.253 µM,0.203
same,relative viability,[1]; first compound 0.8 µM,0.158
same,relative viability,[1]; first compound 2.53 µM,0.181
same,relative viability,[1]; first compound 8 µM,0.156
same,relative viability,[2]; first compound 0.08 µM,0.517
same,relative viability,[2]; first compound 0.253 µM,0.376
same,relative viability,[2]; first compound 0.8 µM,0.451
same,relative viability,[2]; first compound 2.53 µM,0.377
same,relative viability,[2]; first compound 8 µM,0.412
same,relative viability,[3]; first compound 0.08 µM,0.888
same,relative viability,[3]; first compound 0.253 µM,1.01
same,relative viability,[3]; first compound 2.53 µM,0.717
same,relative viability,[3]; first compound 8 µM,0.54
same,relative viability,[4]; first compound 0.08 µM,0.445
same,relative viability,[4]; first compound 0.253 µM,0.414
same,relative viability,[4]; first compound 0.8 µM,0.393
same,relative viability,[4]; first compound 2.53 µM,0.4
same,relative viability,[4]; first compound 8 µM,0.43
same,relative viability,[5]; first compound 0.08 µM,0.492
same,relative viability,[5]; first compound 0.253 µM,0.386
same,relative viability,[5]; first compound 0.8 µM,0.426
same,relative viability,[5]; first compound 2.53 µM,0.411
same,relative viability,[5]; first compound 8 µM,0.399
same,relative viability,[6]; first compound 0.08 µM,0.518
same,relative viability,[6]; first compound 0.253 µM,0.55
same,relative viability,[6]; first compound 0.8 µM,0.516
same,relative viability,[6]; first compound 2.53 µM,0.559
same,relative viability,[6]; first compound 8 µM,0.621
same,relative viability,[7]; first compound 0.08 µM,0.778
same,relative viability,[7]; first compound 0.253 µM,0.724
same,relative viability,[7]; first compound 0.8 µM,0.768
same,relative viability,[7]; first compound 2.53 µM,0.579
same,relative viability,[7]; first compound 8 µM,0.551
same,relative viability,[8]; first compound 0.08 µM,0.825
same,relative viability,[8]; first compound 0.253 µM,0.875
same,relative viability,[8]; first compound 0.8 µM,0.824
same,relative viability,[8]; first compound 2.53 µM,0.781
same,relative viability,[8]; first compound 8 µM,0.788
same,relative viability,[9]; first compound 0.08 µM,0.417
same,relative viability,[9]; first compound 0.253 µM,0.478
same,relative viability,[9]; first compound 0.8 µM,0.539
same,relative viability,[9]; first compound 2.53 µM,0.411
same,relative viability,[9]; first compound 8 µM,0.389
